{"source": "ChEMBL document CHEMBL5046285", "about": "“Probing Fluorinated Motifs onto Dual AChE-MAO B Inhibitors: Rational Design, Synthesis, Biological Evaluation, and Early-ADME Studies” (J Med Chem, 2022)", "key": {"[1]": {"assay": "1-Octanol/PBS buffer distribution coefficient, log D of the compound at 1 uM measured after 24 hrs at pH 7.4 by shake flask based HPLC-ES-MS/MS analysis", "type": "physicochemical"}, "[2]": {"target": "T1, Amine oxidase [flavin-containing] B (Homo sapiens, UniProt P27338)", "T1 sequence (P27338 whole entry)": "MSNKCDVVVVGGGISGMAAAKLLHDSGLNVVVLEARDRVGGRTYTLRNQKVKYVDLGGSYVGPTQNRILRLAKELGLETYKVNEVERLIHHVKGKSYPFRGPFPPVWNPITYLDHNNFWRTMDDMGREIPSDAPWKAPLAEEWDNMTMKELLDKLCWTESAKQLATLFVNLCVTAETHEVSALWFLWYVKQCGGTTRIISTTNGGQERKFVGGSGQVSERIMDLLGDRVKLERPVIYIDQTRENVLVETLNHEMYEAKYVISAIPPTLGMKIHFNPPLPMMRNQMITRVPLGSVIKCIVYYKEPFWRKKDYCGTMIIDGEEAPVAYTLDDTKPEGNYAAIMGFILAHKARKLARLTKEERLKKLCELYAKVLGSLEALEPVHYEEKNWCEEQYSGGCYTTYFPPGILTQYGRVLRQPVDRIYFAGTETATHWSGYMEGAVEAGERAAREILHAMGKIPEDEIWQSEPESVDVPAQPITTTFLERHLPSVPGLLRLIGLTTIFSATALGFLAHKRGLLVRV", "description": "Inhibition of human recombinant MAO-B expressed in supersomes assessed as inhibition of 4-hydroxyquinoline formation using kynuramine as substrate by spectrofluorimetric analysis"}, "[3]": {"assay": "Cytotoxicity against human SH-SY5Y cells assessed as reduction in cell viability incubated for 4 hrs by CellTiter-Glo luminescence assay", "type": "toxicity, cell-based"}, "Cytochrome P450 3A4": {"target": "Cytochrome P450 3A4 (Homo sapiens, UniProt P08684)", "sequence (P08684 whole entry)": "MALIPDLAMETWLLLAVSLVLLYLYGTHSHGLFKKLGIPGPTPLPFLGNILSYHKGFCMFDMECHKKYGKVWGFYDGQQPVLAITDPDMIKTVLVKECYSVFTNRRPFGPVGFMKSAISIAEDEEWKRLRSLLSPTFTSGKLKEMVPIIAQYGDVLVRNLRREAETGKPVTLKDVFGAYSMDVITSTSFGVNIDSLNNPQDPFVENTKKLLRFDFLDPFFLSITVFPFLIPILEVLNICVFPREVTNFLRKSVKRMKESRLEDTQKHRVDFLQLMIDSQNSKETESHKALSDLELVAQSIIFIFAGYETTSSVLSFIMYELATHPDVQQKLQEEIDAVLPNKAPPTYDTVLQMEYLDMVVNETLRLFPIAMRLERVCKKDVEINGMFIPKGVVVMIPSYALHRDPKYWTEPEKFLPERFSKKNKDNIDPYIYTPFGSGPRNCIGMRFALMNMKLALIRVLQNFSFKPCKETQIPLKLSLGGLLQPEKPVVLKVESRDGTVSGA", "assay": "Inhibition of human recombinant CYP3A4 expressed in baculosomes by fluorescent homogenous assay", "type": "ADME"}, "[4]": {"assay": "Chromatographic hydrophobicity index of the compound in ammonium acetate buffer at pH 7.4 by RP-HPLC analysis", "type": "physicochemical"}, "[5]": {"target": "T1, Amine oxidase [flavin-containing] B", "assay": "Inhibition of human recombinant MAO-B expressed in supersomes assessed as inhibition of 4-hydroxyquinoline formation using kynuramine as substrate by spectrophotometric method"}, "[6]": {"assay": "Kinetic aqueous solubility of the compound in PBS incubated for 2 hrs under mild shaking at pH 7.4 by UV- vis spectrophotometric analysis", "type": "physicochemical", "details": "read-out: Kinetic_solubility"}, "Acetylcholinesterase [7]": {"target": "T2, Acetylcholinesterase (Homo sapiens, UniProt P22303)", "T2 sequence (P22303 whole entry)": "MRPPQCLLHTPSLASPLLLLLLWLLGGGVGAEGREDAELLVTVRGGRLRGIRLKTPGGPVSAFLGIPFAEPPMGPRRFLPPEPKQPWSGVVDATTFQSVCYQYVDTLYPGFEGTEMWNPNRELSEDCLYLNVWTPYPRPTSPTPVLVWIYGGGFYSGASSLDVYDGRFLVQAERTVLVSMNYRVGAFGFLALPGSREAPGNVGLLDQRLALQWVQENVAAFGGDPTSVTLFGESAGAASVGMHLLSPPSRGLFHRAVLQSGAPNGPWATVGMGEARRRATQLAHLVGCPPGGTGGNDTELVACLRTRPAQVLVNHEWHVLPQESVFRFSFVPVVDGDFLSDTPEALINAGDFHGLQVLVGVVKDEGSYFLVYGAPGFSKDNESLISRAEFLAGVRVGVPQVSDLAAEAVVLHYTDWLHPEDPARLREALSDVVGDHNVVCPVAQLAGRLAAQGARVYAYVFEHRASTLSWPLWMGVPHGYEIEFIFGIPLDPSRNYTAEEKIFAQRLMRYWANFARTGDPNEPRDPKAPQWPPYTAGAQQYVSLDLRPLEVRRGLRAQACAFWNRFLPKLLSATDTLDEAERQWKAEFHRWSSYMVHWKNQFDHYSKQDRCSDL", "description": "Inhibition of human recombinant AChE by Ellman's spectrophotometric assay"}, "Homo sapiens": {"organism": "Homo sapiens", "assay": "Selectivity for human recombinant MAO-B expressed in supersomes over human recombinant MAO-A expressed in supersomes"}, "[8]": {"assay": "Cytotoxicity against human HepG2 cells assessed as reduction in cell viability incubated for 4 hrs by CellTiter-Glo luminescence assay", "type": "toxicity, cell-based"}, "[9]": {"assay": "Intrinsic clearance in mouse liver microsomes at 0.5 uM incubated upto 30 mins in presence of NADPH measured per mg protein by LC/MS/MS analysis", "type": "ADME, Microsome", "details": "read-out: CLH"}, "Cholinesterase": {"target": "Cholinesterase (Equus caballus, UniProt P81908)", "sequence (P81908 whole entry)": "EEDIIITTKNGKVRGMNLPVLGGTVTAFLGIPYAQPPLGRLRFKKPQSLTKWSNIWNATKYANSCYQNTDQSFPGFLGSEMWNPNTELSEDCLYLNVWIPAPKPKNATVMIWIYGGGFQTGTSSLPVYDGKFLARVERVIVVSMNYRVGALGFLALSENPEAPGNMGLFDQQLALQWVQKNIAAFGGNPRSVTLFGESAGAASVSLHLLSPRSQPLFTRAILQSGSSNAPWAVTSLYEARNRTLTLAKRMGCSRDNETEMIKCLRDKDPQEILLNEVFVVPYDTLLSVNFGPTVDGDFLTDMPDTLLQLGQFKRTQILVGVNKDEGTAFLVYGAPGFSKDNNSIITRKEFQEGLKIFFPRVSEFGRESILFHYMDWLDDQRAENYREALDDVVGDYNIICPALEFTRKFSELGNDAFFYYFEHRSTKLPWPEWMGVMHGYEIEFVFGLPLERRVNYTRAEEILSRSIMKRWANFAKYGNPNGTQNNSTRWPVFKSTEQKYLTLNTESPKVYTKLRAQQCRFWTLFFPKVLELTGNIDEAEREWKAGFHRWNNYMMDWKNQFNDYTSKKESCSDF", "description": "Inhibition of horse serum BChE by Ellman's spectrophotometric assay"}, "MAO-A": {"target": "T3, MAO-A (Homo sapiens, UniProt P21397)", "T3 sequence (P21397 whole entry)": "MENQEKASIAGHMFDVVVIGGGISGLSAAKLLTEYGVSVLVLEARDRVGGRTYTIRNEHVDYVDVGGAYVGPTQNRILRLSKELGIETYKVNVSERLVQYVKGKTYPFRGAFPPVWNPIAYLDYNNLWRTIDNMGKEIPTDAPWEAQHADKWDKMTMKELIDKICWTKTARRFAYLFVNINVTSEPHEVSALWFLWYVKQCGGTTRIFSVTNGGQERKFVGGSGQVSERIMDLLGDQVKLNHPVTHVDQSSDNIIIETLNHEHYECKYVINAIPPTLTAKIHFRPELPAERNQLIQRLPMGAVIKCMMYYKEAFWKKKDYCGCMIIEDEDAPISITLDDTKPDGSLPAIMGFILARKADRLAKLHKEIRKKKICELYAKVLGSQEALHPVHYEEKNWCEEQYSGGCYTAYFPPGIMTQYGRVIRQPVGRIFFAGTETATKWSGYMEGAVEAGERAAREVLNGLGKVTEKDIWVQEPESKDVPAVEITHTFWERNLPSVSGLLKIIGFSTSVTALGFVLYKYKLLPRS", "assay": "in vitro", "details": "recombinant MAO-A expressed in supersomes, probe kynuramine"}, "[10]": {"assay": "Microsomal stability in mouse liver microsomes assessed as half life at 0.5 uM incubated upto 30 mins in presence of NADPH by LC/MS/MS analysis", "type": "ADME, Microsome"}, "Albumin": {"target": "Albumin (Homo sapiens, UniProt P02768)", "sequence (P02768 whole entry)": "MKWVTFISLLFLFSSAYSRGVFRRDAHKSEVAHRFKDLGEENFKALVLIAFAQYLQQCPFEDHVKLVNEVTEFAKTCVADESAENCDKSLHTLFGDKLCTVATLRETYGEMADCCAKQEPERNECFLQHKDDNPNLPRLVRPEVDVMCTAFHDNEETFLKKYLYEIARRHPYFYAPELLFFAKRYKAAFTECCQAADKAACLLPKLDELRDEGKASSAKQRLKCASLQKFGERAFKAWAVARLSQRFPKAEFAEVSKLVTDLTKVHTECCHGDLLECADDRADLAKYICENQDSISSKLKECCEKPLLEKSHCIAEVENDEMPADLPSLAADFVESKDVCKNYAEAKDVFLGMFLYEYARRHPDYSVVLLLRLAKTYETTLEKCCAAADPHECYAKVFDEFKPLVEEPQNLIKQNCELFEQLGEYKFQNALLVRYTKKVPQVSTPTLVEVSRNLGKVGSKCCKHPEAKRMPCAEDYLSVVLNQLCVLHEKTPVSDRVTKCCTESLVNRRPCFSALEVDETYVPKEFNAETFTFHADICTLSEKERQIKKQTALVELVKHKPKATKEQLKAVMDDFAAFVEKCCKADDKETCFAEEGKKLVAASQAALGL", "assay": "Binding affinity to human serum albumin assessed as dissociation […] constant by surface plasmon resonance assay", "type": "ADME, cell-free"}, "Acetylcholinesterase [11]": {"target": "T2, Acetylcholinesterase", "assay": "Mixed type inhibition of human AChE by Lineweaver-Burk plot analysis"}, "[12]": {"assay": "Microsomal stability in human liver microsomes assessed as half life at 0.5 uM incubated upto 60 mins in presence of NADPH by LC/MS/MS analysis", "type": "ADME, Microsome"}, "SH-SY5Y [13]": {"tested_on": "SH-SY5Y", "assay": "Neuroprotective activity against H2O2-induced neurotoxicity in human SH-SY5Y cells assessed as increase in cell viability at 1 to 5 uM co-incubated with H2O2 for 24 hrs by MTT assay", "type": "functional, cell-based", "details": "dose 1-5 µM"}, "[14]": {"assay": "Apparent permeability across basolateral to apical side in human Caco-2 cells at 10 uM incubated for 60 mins by HPLC-MS/MS method", "type": "ADME, cell-based"}, "[15]": {"assay": "Apparent permeability across apical to basolateral side in human Caco-2 cells at 10 uM incubated for 60 mins by HPLC-MS/MS method", "type": "ADME, cell-based"}, "[16]": {"assay": "Efflux ratio of apparent permeability across basolateral to apical side over apical to basolateral side in human Caco-2 cells", "type": "ADME, cell-based"}, "[17]": {"target": "T1, Amine oxidase [flavin-containing] B", "assay": "Reversible inhibition of human recombinant MAO-B expressed in supersomes using kynuramine as substrate at 10 nM co-incubated with enzyme and measured over 6 hrs by spectrophotometric method", "details": "0.01 µM"}, "[18]": {"assay": "Intrinsic clearance in human liver microsomes at 0.5 uM incubated upto 60 mins in presence of NADPH measured per mg protein by LC/MS/MS analysis", "type": "ADME, Microsome", "details": "read-out: CLH"}, "SH-SY5Y [19]": {"tested_on": "SH-SY5Y", "assay": "Neuroprotection against Amyloid beta-induced cytotoxicity in human SH-SY5Y cells assessed as increase in cell viability at 0.1 to 1 uM co-incubated with Amyloid beta for 24 hrs by MTT assay", "type": "functional, cell-based", "details": "dose 0.1-1 µM"}, "[20]": {"target": "Cholinesterase (Equus caballus) (UniProt P81908)", "sequence (P81908 whole entry)": "as the sequence (P81908 whole entry) above", "assay": "Inhibition of horse serum BChE at 10 uM by Ellman's spectrophotometric assay", "type": "cell-free"}, "HepG2": {"tested_on": "HepG2", "assay": "Cytotoxicity against human HepG2 cells assessed as reduction in cell viability at 100 uM incubated for 4 hrs by CellTiter-Glo luminescence assay", "type": "toxicity, cell-based", "details": "hepg2, 4 h"}, "SH-SY5Y [21]": {"tested_on": "SH-SY5Y", "assay": "Cytotoxicity against human SH-SY5Y cells assessed as reduction in cell viability at 100 uM incubated for 4 hrs by CellTiter-Glo luminescence assay", "type": "toxicity, cell-based"}, "[22]": {"assay": "Effective permeability of the compound in PBS buffer at pH 7.4 by PAMPA-BBB assay", "type": "ADME", "details": "read-out: Peff"}, "SH-SY5Y [23]": {"tested_on": "SH-SY5Y", "assay": "Neuroprotective activity against NMDA -induced cytotoxicity in human SH-SY5Y cells assessed as increase in cell viability at 0.1 to 5 uM co-incubated with NMDA for 24 hrs by MTT assay", "type": "functional, cell-based", "details": "dose 0.1-5 µM"}, "[24]": {"target": "T1, Amine oxidase [flavin-containing] B", "assay": "Competitive inhibition of human recombinant MAO-B expressed in supersomes using kynuramine as substrate by Lineweaver-Burk plot analysis"}}, "note": "Calls of active or inactive are those of the source. The calls are words filed in the database; no cut-off is given here."}
{"smiles": "CN(Cc1ccc(COc2ccc3c(CO)cc(=O)oc3c2)cc1)Cc1cccc(F)c1", "values": [{"measurement": "logD at 24 h, 1 µM", "setting": "[1]", "result": 4.29}, {"measurement": "IC50", "setting": "[2]", "result": 10, "unit": "nM"}, {"measurement": "IC50 at 4 h", "setting": "[3]", "result": 40, "unit": "µM"}, {"measurement": "IC50", "setting": "Cytochrome P450 3A4", "result": 3.5, "unit": "µM"}, {"measurement": "CHI", "setting": "[4]", "result": "> 100"}, {"measurement": "inhibition (INH)", "setting": "[5]", "result": "Active"}, {"measurement": "solubility kinetic at 2 h", "setting": "[6]", "result": 2.4, "unit": "µM"}, {"measurement": "IC50", "setting": "Acetylcholinesterase [7]", "result": 330, "unit": "nM"}, {"measurement": "Selectivity Index", "setting": "Homo sapiens", "result": "> 1000"}, {"measurement": "IC50 at 4 h", "setting": "[8]", "result": 40, "unit": "µM"}, {"measurement": "microsomal CLint at 0.5 µM", "setting": "[9]", "result": 37.7, "unit": "µL/min/mg"}, {"measurement": "IC50", "setting": "Cholinesterase", "result": 1100, "unit": "nM"}, {"measurement": "inhibition at 10 µM", "setting": "MAO-A", "result": 47, "unit": "%"}, {"measurement": "half-life at 0.5 µM", "setting": "[10]", "result": 36.9, "unit": "min"}]}
{"smiles": "CN(CCCC(F)F)Cc1ccc(COc2ccc3c(CO)cc(=O)oc3c2)cc1", "values": [{"measurement": "Kd", "setting": "Albumin", "result": 11.3, "unit": "µM"}, {"measurement": "logD at 24 h, 1 µM", "setting": "[1]", "result": 2.48}, {"measurement": "IC50", "setting": "[2]", "result": 8.2, "unit": "nM"}, {"measurement": "Ki", "setting": "Acetylcholinesterase [11]", "result": 2000, "unit": "nM"}, {"measurement": "half-life at 0.5 µM", "setting": "[12]", "result": 34.9, "unit": "min"}, {"measurement": "IC50", "setting": "Cytochrome P450 3A4", "result": 10, "unit": "µM"}, {"measurement": "Activity", "setting": "SH-SY5Y [13]", "result": "Active"}, {"measurement": "Papp B→A at 1 h, 10 µM", "setting": "[14]", "result": 16, "unit": "×10⁻⁶ cm/s"}, {"measurement": "CHI", "setting": "[4]", "result": 76.4}, {"measurement": "inhibition (INH)", "setting": "[5]", "result": "Active"}, {"measurement": "solubility kinetic at 2 h", "setting": "[6]", "result": 201, "unit": "µM"}, {"measurement": "IC50", "setting": "Acetylcholinesterase [7]", "result": 550, "unit": "nM"}, {"measurement": "Papp A→B at 1 h, 10 µM", "setting": "[15]", "result": 25, "unit": "×10⁻⁶ cm/s"}, {"measurement": "efflux ratio", "setting": "[16]", "result": 0.6}, {"measurement": "Selectivity Index", "setting": "Homo sapiens", "result": "> 1250"}, {"measurement": "inhibition (INH)", "setting": "[17]", "result": "Active"}, {"measurement": "microsomal CLint at 0.5 µM", "setting": "[18]", "result": 39.8, "unit": "µL/min/mg"}, {"measurement": "microsomal CLint at 0.5 µM", "setting": "[9]", "result": 55.6, "unit": "µL/min/mg"}, {"measurement": "Activity", "setting": "SH-SY5Y [19]", "result": "Active"}, {"measurement": "inhibition", "setting": "[20]", "result": 34, "unit": "%"}, {"measurement": "Activity", "setting": "HepG2", "result": "Non-Toxic"}, {"measurement": "Activity", "setting": "SH-SY5Y [21]", "result": "Non-Toxic"}, {"measurement": "inhibition at 10 µM", "setting": "MAO-A", "result": 34, "unit": "%"}, {"measurement": "Papp", "setting": "[22]", "result": "> 14", "unit": "×10⁻⁶ cm/s"}, {"measurement": "half-life at 0.5 µM", "setting": "[10]", "result": 25, "unit": "min"}, {"measurement": "Activity", "setting": "SH-SY5Y [23]", "result": "Active"}, {"measurement": "Ki", "setting": "[24]", "result": 13, "unit": "nM"}]}
